Results as given in US9328122B2, “7-substituted Hanfangichin B derivative, and preparation method and use thereof” (HANGZHOU BENSHENG PHARMACEUTICAL CO., LTD., priority 2012, dated 2016).
≈ marks a conversion by molar mass, not a printed value. Blank lines part the entries; values can stand above or below the compound they belong to.

What was measured:
[1] = tested on: Jurkat (acute lymphoblastic leukemia) cells; experiment: MTT cell growth inhibition, leukemia cells; assay type: cell-based, human; conditions: Homo sapiens, Jurkat, 72 h, MTT; for IC50: read-out: IC50; for IC90: read-out: IC90
Procedure, shortened: (§1)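 Growth inhibition is assessed by MTT after leukemia cells, plated at 6000 per well in RPMI-1640 containing 10% fetal bovine serum, are exposed for 72 hours to graded compound concentrations added the day after plating.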

[2] = tested on: Kasumi-1 (acute myeloid leukemia M2 type) cells; experiment: MTT cell growth inhibition, leukemia cells; assay type: cell-based, human; conditions: Homo sapiens, Kasumi-1, 72 h, MTT; for IC50: read-out: IC50; for IC90: read-out: IC90
Procedure, shortened: as §1

[3] = tested on: H9 (acute lymphoblastic leukemia) cells; experiment: MTT cell growth inhibition, leukemia cells; assay type: cell-based, human; conditions: Homo sapiens, H9, 72 h, MTT; for IC50: read-out: IC50; for IC90: read-out: IC90
Procedure, shortened: as §1

[4] = tested on: NB4 (acute promyelocytic leukemia) cells; experiment: MTT cell growth inhibition, leukemia cells; assay type: cell-based; conditions: Homo sapiens, NB4, 72 h, MTT; for IC50: read-out: IC50; for IC90: read-out: IC90
Procedure, shortened: as §1

[5] = tested on: K562/ADR (K562adr, drug-resistant chronic myeloid leukemia) cells; experiment: MTT cell growth inhibition, leukemia cells; assay type: cell-based; conditions: Homo sapiens, K562/ADR, 72 h, MTT; for IC50: read-out: IC50; for IC90: read-out: IC90
Procedure, shortened: as §1

[6] = tested on: MGC-803 (human gastric cancer) cells; experiment: MTT cell growth inhibition, solid tumor cells; assay type: cell-based; conditions: MGC-803, 72 h, MTT; for IC50: read-out: IC50; for IC90: read-out: IC90
Procedure, shortened: (§2)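 Exposure lasted 72 h, following 24 h growth of 6000 cells/well in DMEM high glucose containing 10% FBS at 37 °C in 5% CO2; endpoint was MTT-based viable cell concentration across tested compound concentrations.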

[7] = tested on: Hela (human cervical cancer) cells; experiment: MTT cell growth inhibition, solid tumor cells; assay type: cell-based; conditions: Homo sapiens, Hela, 72 h, MTT; for IC50: read-out: IC50; for IC90: read-out: IC90
Procedure, shortened: as §2

[8] = tested on: RKO (human colon adenocarcinoma) cells; experiment: MTT cell growth inhibition, solid tumor cells; assay type: cell-based; conditions: for IC50 / IC90: Homo sapiens, RKO, 72 h, MTT; for IC50: read-out: IC50; for IC90: read-out: IC90
Procedure, shortened: as §2

[9] = tested on: Hep G2 (human liver cancer) cells; experiment: MTT cell growth inhibition, solid tumor cells; assay type: cell-based; conditions: for IC50 / IC90: Homo sapiens, HepG2, Hep G2, 72 h, MTT; for IC50: read-out: IC50; for IC90: read-out: IC90; for anti-Hep G2 activity increase over fangchinoline: relative to fangchinoline, Table 2
Procedure, shortened: as §2

[10] = tested on: Becap-37 (human breast cancer) cells; experiment: MTT cell growth inhibition, solid tumor cells; assay type: cell-based; conditions: for IC50 / IC90: Homo sapiens, Becap-37, 72 h, MTT; for IC50: read-out: IC50; for IC90: read-out: IC90; for anti-Becap37 activity increase over fangchinoline: relative to fangchinoline, Table 2
Procedure, shortened: as §2

[11] = tested on: MG-63 (osteosarcoma) cells; experiment: MTT cell growth inhibition, solid tumor cells; assay type: cell-based; conditions: Homo sapiens, MG-63, 72 h, MTT; for IC50: read-out: IC50; for IC90: read-out: IC90
Procedure, shortened: as §2

[12] = tested on: RPMI 8226 (multiple myeloma) cells; experiment: MTT cell growth inhibition, multiple myeloma cells; assay type: cell-based, human; conditions: Homo sapiens, RPMI 8226, 72 h, MTT; for IC50: read-out: IC50; for IC90: read-out: IC90
Procedure, shortened: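 RPMI 8226 myeloma cells, 6000 per well in RPMI-1640 with 10% FBS, were dosed with fangchinoline derivatives at several concentrations the day after seeding. Incubation ran 72 h at 37° C in 5% CO2, then viable cells were measured by MTT.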

[13] = tested on: SK-OV-3 (ovarian cancer) cells; experiment: MTT cell growth inhibition, solid tumor cells; assay type: cell-based, human; conditions: for IC50 / IC90: Homo sapiens, SK-OV-3, 72 h, MTT; for IC50: read-out: IC50; for IC90: read-out: IC90
Procedure, shortened: as §2

[14] = tested on: PC-3 (prostate cancer) cells; experiment: MTT cell growth inhibition, solid tumor cells; assay type: cell-based, human; conditions: for IC50 / IC90: Homo sapiens, PC-3, 72 h, MTT; for IC50: read-out: IC50; for IC90: read-out: IC90
Procedure, shortened: as §2

[15] = tested on: CaEs-17 (esophageal cancer) cells; experiment: MTT cell growth inhibition, solid tumor cells; assay type: cell-based, human; conditions: for IC50 / IC90: Homo sapiens, CaEs17, CaEs-17, 72 h, MTT; for IC50: read-out: IC50; for IC90: read-out: IC90; for anti-CaEs-17 activity increase over fangchinoline: relative to fangchinoline, Table 2
Procedure, shortened: as §2

[16] = tested on: CNE (nasopharyngeal carcinoma) cells; experiment: MTT cell growth inhibition, solid tumor cells; assay type: cell-based, human; conditions: for IC50 / IC90: Homo sapiens, CNE, 72 h, MTT; for IC50: read-out: IC50; for IC90: read-out: IC90; for anti-CNE activity increase over fangchinoline: relative to fangchinoline, Table 2
Procedure, shortened: as §2

[17] = tested on: PANC-1 (pancreatic cancer) cells; experiment: MTT cell growth inhibition, solid tumor cells; assay type: cell-based, human; conditions: for IC50 / IC90: Homo sapiens, PANC-1, 72 h, MTT; for IC50: read-out: IC50; for IC90: read-out: IC90; for anti-PANC-1 activity increase over fangchinoline: relative to fangchinoline, Table 2
Procedure, shortened: as §2

tumor = experiment: Antitumor activity compared with fangchinoline, overall statement; assay type: cell-based; conditions: tumor type not specified
[18] = relative to fangchinoline, Table 2

IC50 [1]: 0.58 mg/L (≈ 0.773 µM)
IC90 [1]: 0.96 mg/L (≈ 1.28 µM)
IC50 [2]: 0.88 mg/L (≈ 1.17 µM)
IC90 [2]: 2 mg/L (≈ 2.67 µM)
IC50 [3]: 0.88 mg/L (≈ 1.17 µM)
IC90 [3]: 1.9 mg/L (≈ 2.53 µM)
IC50 [4]: 0.3 mg/L (≈ 0.4 µM)
IC90 [4]: 0.78 mg/L (≈ 1.04 µM)
IC50 [5]: 0.05 mg/L (≈ 0.0667 µM)
IC90 [5]: 0.83 mg/L (≈ 1.11 µM)
IC50 [6]: 0.4 mg/L (≈ 0.533 µM)
IC90 [6]: 4.14 mg/L (≈ 5.52 µM)
IC50 [7]: 0.9 mg/L (≈ 1.2 µM)
IC90 [7]: 2.96 mg/L (≈ 3.95 µM)
IC50 [8]: 0.34 mg/L (≈ 0.453 µM)
IC90 [8]: 0.79 mg/L (≈ 1.05 µM)
IC50 [9]: 0.55 mg/L (≈ 0.733 µM)
IC90 [9]: 2.23 mg/L (≈ 2.97 µM)
IC50 [10]: 0.59 mg/L (≈ 0.787 µM)
IC90 [10]: 2.09 mg/L (≈ 2.79 µM)
IC50 [11]: 0.6 mg/L (≈ 0.8 µM)
IC90 [11]: 1.3 mg/L (≈ 1.73 µM)
IC50 [12]: < 0.125 mg/L
IC90 [12]: 0.13 mg/L (≈ 0.173 µM)
IC50 [13]: 1.03 mg/L (≈ 1.37 µM)
IC90 [13]: 3.85 mg/L (≈ 5.13 µM)
IC50 [14]: 1.49 mg/L (≈ 1.99 µM)
IC90 [14]: 3.96 mg/L (≈ 5.28 µM)
IC50 [15]: 0.43 mg/L (≈ 0.573 µM)
IC90 [15]: 1.99 mg/L (≈ 2.65 µM)
IC50 [16]: 0.87 mg/L (≈ 1.16 µM)
IC90 [16]: 2.2 mg/L (≈ 2.93 µM)
IC50 [17]: 1.03 mg/L (≈ 1.37 µM)
IC90 [17]: 3.17 mg/L (≈ 4.23 µM)
Structure (SMILES): COc1ccc2cc1Oc1ccc(cc1)C[C@H]1c3cc(c(OC)cc3CCN1C)Oc1c(OCC(O)CN3CCCCC3)c(OC)cc3c1[C@H](C2)N(C)CC3 (stereo partly shown) [BS-FC-403]
anti-RKO activity increase over fangchinoline [8, 18]: ~3 fold
anti-Hep G2 activity increase over fangchinoline [9]: ~3 fold
anti-Becap37 activity increase over fangchinoline [10]: ~3 fold
anti-SK-OV-3 activity increase over fangchinoline [13, 18]: ~3 fold
anti-PC-3 activity increase over fangchinoline [14, 18]: ~3 fold
anti-CaEs-17 activity increase over fangchinoline [15]: ~4 fold
anti-CNE activity increase over fangchinoline [16]: ~3 fold
anti-PANC-1 activity increase over fangchinoline [17]: ~3 fold
antitumor activity compared with that of fangchinoline (tumor): significantly superior

IC50 [1]: 0.56 mg/L (≈ 0.761 µM)
IC90 [1]: 0.99 mg/L (≈ 1.35 µM)
IC50 [2]: 0.76 mg/L (≈ 1.03 µM)
IC90 [2]: 1.75 mg/L (≈ 2.38 µM)
IC50 [3]: 1.45 mg/L (≈ 1.97 µM)
IC90 [3]: 2.9 mg/L (≈ 3.94 µM)
IC50 [4]: 0.47 mg/L (≈ 0.639 µM)
IC90 [4]: 0.95 mg/L (≈ 1.29 µM)
IC50 [5]: 0.6 mg/L (≈ 0.815 µM)
IC90 [5]: 1.73 mg/L (≈ 2.35 µM)
IC50 [6]: 0.88 mg/L (≈ 1.2 µM)
IC90 [6]: 3.59 mg/L (≈ 4.88 µM)
IC50 [7]: 1.25 mg/L (≈ 1.7 µM)
IC90 [7]: 2 mg/L (≈ 2.72 µM)
IC50 [8]: 0.46 mg/L (≈ 0.625 µM)
IC90 [8]: 0.92 mg/L (≈ 1.25 µM)
IC50 [9]: 0.71 mg/L (≈ 0.965 µM)
IC90 [9]: 1.7 mg/L (≈ 2.31 µM)
IC50 [10]: 0.74 mg/L (≈ 1.01 µM)
IC90 [10]: 1.88 mg/L (≈ 2.55 µM)
IC50 [11]: 0.96 mg/L (≈ 1.3 µM)
IC90 [11]: 1.7 mg/L (≈ 2.31 µM)
IC50 [12]: 0.05 mg/L (≈ 0.0679 µM)
IC90 [12]: 0.44 mg/L (≈ 0.598 µM)
IC50 [13]: 1.54 mg/L (≈ 2.09 µM)
IC90 [13]: 3.5 mg/L (≈ 4.76 µM)
IC50 [14]: 2.53 mg/L (≈ 3.44 µM)
IC90 [14]: 3.69 mg/L (≈ 5.01 µM)
IC50 [15]: 0.49 mg/L (≈ 0.666 µM)
IC90 [15]: 1.95 mg/L (≈ 2.65 µM)
IC50 [16]: 0.8 mg/L (≈ 1.09 µM)
IC90 [16]: 1.7 mg/L (≈ 2.31 µM)
IC50 [17]: 1.14 mg/L (≈ 1.55 µM)
IC90 [17]: 3.34 mg/L (≈ 4.54 µM)
Structure (SMILES): COc1ccc2cc1Oc1ccc(cc1)C[C@H]1c3cc(c(OC)cc3CCN1C)Oc1c(OCC(O)CNCC3CC3)c(OC)cc3c1[C@H](C2)N(C)CC3 (stereo partly shown) [BS-FC-405]
anti-Hep G2 activity increase over fangchinoline [9]: ~3 fold
anti-Becap37 activity increase over fangchinoline [10]: ~3 fold
anti-CaEs-17 activity increase over fangchinoline [15]: ~4 fold
anti-CNE activity increase over fangchinoline [16]: ~3 fold
anti-PANC-1 activity increase over fangchinoline [17]: ~3 fold
antitumor activity compared with that of fangchinoline (tumor): significantly superior

IC50 [1]: 1.02 mg/L (≈ 1.39 µM)
IC90 [1]: 3.33 mg/L (≈ 4.52 µM)
IC50 [2]: 1.46 mg/L (≈ 1.98 µM)
IC90 [2]: 4.82 mg/L (≈ 6.55 µM)
IC50 [3]: 0.9 mg/L (≈ 1.22 µM)
IC90 [3]: 2 mg/L (≈ 2.72 µM)
IC50 [4]: 0.59 mg/L (≈ 0.802 µM)
IC90 [4]: 1.76 mg/L (≈ 2.39 µM)
IC50 [5]: 0.16 mg/L (≈ 0.217 µM)
IC90 [5]: 1.38 mg/L (≈ 1.88 µM)
IC50 [6]: 0.94 mg/L (≈ 1.28 µM)
IC90 [6]: 16 mg/L (≈ 21.7 µM)
IC50 [7]: 1.05 mg/L (≈ 1.43 µM)
IC90 [7]: 3.52 mg/L (≈ 4.78 µM)
IC50 [8]: 0.65 mg/L (≈ 0.883 µM)
IC90 [8]: 1.27 mg/L (≈ 1.73 µM)
IC50 [9]: 1.27 mg/L (≈ 1.73 µM)
IC90 [9]: 3.24 mg/L (≈ 4.4 µM)
IC50 [10]: 1.44 mg/L (≈ 1.96 µM)
IC90 [10]: 4.8 mg/L (≈ 6.52 µM)
IC50 [11]: 1.1 mg/L (≈ 1.49 µM)
IC90 [11]: 1.99 mg/L (≈ 2.7 µM)
IC50 [12]: 0.04 mg/L (≈ 0.0544 µM)
IC90 [12]: 0.5 mg/L (≈ 0.679 µM)
IC50 [13]: 2.82 mg/L (≈ 3.83 µM)
IC90 [13]: 9.85 mg/L (≈ 13.4 µM)
IC50 [14]: 2.89 mg/L (≈ 3.93 µM)
IC90 [14]: 5.8 mg/L (≈ 7.88 µM)
IC50 [15]: 0.91 mg/L (≈ 1.24 µM)
IC90 [15]: 4.9 mg/L (≈ 6.66 µM)
IC50 [16]: 0.95 mg/L (≈ 1.29 µM)
IC90 [16]: 3.94 mg/L (≈ 5.35 µM)
IC50 [17]: 3.17 mg/L (≈ 4.31 µM)
IC90 [17]: 7.14 mg/L (≈ 9.7 µM)
Structure (SMILES): C=CCN(C)CC(O)COc1c(OC)cc2c3c1Oc1cc4c(cc1OC)CCN(C)[C@H]4Cc1ccc(cc1)Oc1cc(ccc1OC)C[C@@H]3N(C)CC2 (stereo partly shown) [BS-FC-409]
antitumor activity compared with that of fangchinoline (tumor): significantly superior
